Source: PubChem BioAssay AID248 (DTP/NCI, 2004)
Toxic doses and inconclusive results are not listed. Rule as the data show it: active = T/C of 150% or more; inactive = T/C below 125%.

Test system: L1210 leukemia ip in BDF1 mice, survival T/C
Assay: NCI In Vivo Anticancer Drug Screen. Data for tumor model L1210 Leukemia (intraperitoneal) in B6D2F1 (BDF1) mice
Details: endpoint: mean survival time, higher = longer survival
How it was run: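 Transplanted-tumor mice were given test agent; controls received vehicle only. Survival readings from the two groups were divided (treated over control).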

[1] = dose: 100.0 mg/kg/injection, schedule: Q01DX009 (ip), vehicle: saline
[2] = dose: 100.0 mg/kg/injection, schedule: Q04DX003 (ip), vehicle: saline
[3] = dose: 200.0 mg/kg/injection, schedule: Q01DX009 (ip), vehicle: saline
[4] = dose: 200.0 mg/kg/injection, schedule: Q04DX003 (ip), vehicle: saline
[5] = dose: 400.0 mg/kg/injection, schedule: Q04DX003 (ip), vehicle: saline
[6] = dose: 100.0 mg/kg/injection, schedule: Q01DX001 (ip), vehicle: saline
[7] = dose: 200.0 mg/kg/injection, schedule: Q01DX001 (ip), vehicle: saline
[8] = dose: 400.0 mg/kg/injection, schedule: Q01DX001 (ip), vehicle: saline
[9] = dose: 100.0 mg/kg/injection, schedule: Q01DX009 (ip), vehicle: Klucel (hydroxypropylcellulose) (HPC)
[10] = dose: 100.0 mg/kg/injection, schedule: Q04DX003 (ip), vehicle: Klucel (hydroxypropylcellulose) (HPC)
[11] = dose: 200.0 mg/kg/injection, schedule: Q01DX009 (ip), vehicle: Klucel (hydroxypropylcellulose) (HPC)
[12] = dose: 200.0 mg/kg/injection, schedule: Q04DX003 (ip), vehicle: Klucel (hydroxypropylcellulose) (HPC)
[13] = dose: 400.0 mg/kg/injection, schedule: Q04DX003 (ip), vehicle: Klucel (hydroxypropylcellulose) (HPC)
[14] = dose: 100.0 mg/kg/injection, schedule: Q01DX001 (ip), vehicle: carboxymethylcellulose (CMC)
[15] = dose: 200.0 mg/kg/injection, schedule: Q01DX001 (ip), vehicle: carboxymethylcellulose (CMC)
[16] = dose: 400.0 mg/kg/injection, schedule: Q01DX001 (ip), vehicle: carboxymethylcellulose (CMC)
[17] = dose: 50.0 mg/kg/injection, schedule: Q01DX009 (ip), vehicle: Klucel (hydroxypropylcellulose) (HPC)
[18] = dose: 100.0 mg/kg/injection, schedule: Q01DX009 (ip), vehicle: saline with Tween-80
[19] = dose: 100.0 mg/kg/injection, schedule: Q04DX003 (ip), vehicle: saline with Tween-80
[20] = dose: 200.0 mg/kg/injection, schedule: Q01DX009 (ip), vehicle: saline with Tween-80
[21] = dose: 200.0 mg/kg/injection, schedule: Q04DX003 (ip), vehicle: saline with Tween-80
[22] = dose: 400.0 mg/kg/injection, schedule: Q04DX003 (ip), vehicle: saline with Tween-80

Measured: T/C

COc1ccc(Cl)cc1NC(=O)Nc1ccc(CCO)cc1
inactive: [1] 100 % of control | [2] 113 % of control | [3] 91 % of control | [4] 103 % of control | dose: 400.0 mg/kg/injection, schedule: Q01DX009 (ip), vehicle: saline 93 % of control | [5] 101 % of control

O=C1CCCCCC2CC12 (centres undefined)
inactive: dose: 100.0 mg/kg/injection, schedule: Q04DX002 (sc), vehicle: olive oil, sesame oil, peanut oil 105 % of control | dose: 200.0 mg/kg/injection, schedule: Q04DX002 (sc), vehicle: olive oil, sesame oil, peanut oil 112 % of control | dose: 400.0 mg/kg/injection, schedule: Q04DX002 (sc), vehicle: olive oil, sesame oil, peanut oil 109 % of control

Cn1[nH]c(=S)c(=O)[nH]c1=O
inactive: [6] 111 % of control | [7] 106 % of control | [8] 101 % of control

CC(C)=CCC(=O)NC(=O)NS(=O)(=O)c1ccc(C)cc1
inactive: dose: 10.2 mg/kg/injection, schedule: Q01DX009 (ip), vehicle: Klucel (hydroxypropylcellulose) (HPC) 100 % of control | [9] 96 % of control | [10] 100 % of control | [11] 100 % of control | [12] 102 % of control | [13] 101 % of control

CN(c1ccccc1)c1ccc([N+](=O)[O-])cc1[N+](=O)[O-]
inactive: [14] 98 % of control | [15] 102 % of control | [16] 107 % of control

COc1cccc(C=Nc2ccc(Br)cc2)c1O.COc1cccc(C=Nc2ccc(Br)cc2)c1O.[Co]
inactive: [2] 98 % of control | [4] 98 % of control | [5] 98 % of control

CCCCCCCCP(=S)(CCCCCC)CCCCCC
inactive: dose: 100.0 mg/kg/injection, schedule: Q01DX001 (ip), vehicle: saline with Tween-80 104 % of control | dose: 200.0 mg/kg/injection, schedule: Q01DX001 (ip), vehicle: saline with Tween-80 90 % of control | dose: 400.0 mg/kg/injection, schedule: Q01DX001 (ip), vehicle: saline with Tween-80 87 % of control

O=C(Nc1ccc(C2=NCCN2)cc1)c1ccc(F)c(C(=O)Nc2ccc(C3=NCCN3)cc2)c1
active: dose: 37.5 mg/kg/injection, schedule: Q01DX Z (ip), vehicle: water 154 % of control | dose: 75.0 mg/kg/injection, schedule: Q01DX Z (ip), vehicle: water 189 % of control | dose: 150.0 mg/kg/injection, schedule: Q01DX Z (ip), vehicle: water 241 % of control | dose: 300.0 mg/kg/injection, schedule: Q01DX Z (ip), vehicle: water 229 % of control
inactive: dose: 2.25 mg/kg/injection, schedule: Q01DX Z (ip), vehicle: water 105 % of control | dose: 4.5 mg/kg/injection, schedule: Q01DX Z (ip), vehicle: water 107 % of control | dose: 9.0 mg/kg/injection, schedule: Q01DX Z (ip), vehicle: water 116 % of control

CCCCCOB(OCCCCC)OCCCCC
inactive: dose: 50.0 mg/kg/injection, schedule: Q01DX001 (ip), vehicle: carboxymethylcellulose (CMC) 93 % of control | [14] 95 % of control | [15] 93 % of control | [16] 98 % of control

C#CCC1(OC(N)=O)CCCCC1
inactive: dose: 25.0 mg/kg/injection, schedule: Q01DX009 (ip), vehicle: Klucel (hydroxypropylcellulose) (HPC) 96 % of control | dose: 25.0 mg/kg/injection, schedule: Q04DX003 (ip), vehicle: Klucel (hydroxypropylcellulose) (HPC) 102 % of control | [17] 96 % of control | dose: 50.0 mg/kg/injection, schedule: Q04DX003 (ip), vehicle: Klucel (hydroxypropylcellulose) (HPC) 110 % of control | [9] 110 % of control | [10] 100 % of control | [11] 87 % of control | [12] 107 % of control | [13] 94 % of control

CC(=O)Nc1ccc2c(c1)C(=O)c1cc(NC(C)=O)ccc1-2
inactive: dose: 50.0 mg/kg/injection, schedule: Q01DX009 (ip), vehicle: saline with Tween-80 95 % of control | [18] 95 % of control | [19] 92 % of control | [20] 101 % of control | [21] 86 % of control | [22] 89 % of control

CN(C)CCN(C)C(=O)C(c1ccccc1)C1CCCCC1 (centres undefined)
inactive: dose: 75.0 mg/kg/injection, schedule: Q01DX001 (ip), vehicle: saline 103 % of control | dose: 150.0 mg/kg/injection, schedule: Q01DX001 (ip), vehicle: saline 97 % of control

COc1ccc(C(C)=O)cc1CCC=O
inactive: [14] 97 % of control | [15] 97 % of control | [16] 97 % of control

NC(Cc1nccn1Cc1ccccc1)C(=O)O (centres undefined)
inactive: dose: 75.0 mg/kg/injection, schedule: Q04DX002 (ip), vehicle: saline with Tween-80 104 % of control | dose: 150.0 mg/kg/injection, schedule: Q04DX002 (ip), vehicle: saline with Tween-80 112 % of control | dose: 300.0 mg/kg/injection, schedule: Q04DX002 (ip), vehicle: saline with Tween-80 119 % of control

NC(=O)C1(c2ccccc2)CC1
inactive: [1] 100 % of control | [2] 88 % of control | [3] 103 % of control | [4] 93 % of control | [5] 107 % of control

O=C(c1ccccc1)c1cccc(C(Br)Br)c1
inactive: [19] 96 % of control | [21] 95 % of control | [22] 95 % of control

Cc1ccc(C)c(SC2CCCCC2=O)c1 (centres undefined)
inactive: [6] 94 % of control | [7] 101 % of control | [8] 97 % of control

CN1CC(COC(=O)Cc2c[nH]c3ccccc23)C=C2c3cccc4[nH]cc(c34)CC21 (centres undefined)
inactive: dose: 25.0 mg/kg/injection, schedule: Q04DX003 (ip), vehicle: alcohol 98 % of control | dose: 50.0 mg/kg/injection, schedule: Q04DX003 (ip), vehicle: alcohol 96 % of control | dose: 100.0 mg/kg/injection, schedule: Q04DX003 (ip), vehicle: alcohol 102 % of control | dose: 200.0 mg/kg/injection, schedule: Q04DX003 (ip), vehicle: alcohol 96 % of control | dose: 400.0 mg/kg/injection, schedule: Q04DX003 (ip), vehicle: alcohol 96 % of control

COc1cc(C(=O)NCC(=O)O)cc(OC)c1OC
inactive: [1] 86 % of control | [2] 107 % of control | [3] 86 % of control | [4] 98 % of control | [5] 95 % of control

CCN=C(NCC)Nc1ccc(NC(=O)Nc2ccc(NC(=O)Nc3ccc(NC(=NCC)NCC)cc3)cc2)cc1
inactive: dose: 1.0 mg/kg/injection, schedule: Q01DX Z (ip), vehicle: carboxymethylcellulose (CMC) 97 % of control | dose: 2.0 mg/kg/injection, schedule: Q01DX Z (ip), vehicle: carboxymethylcellulose (CMC) 96 % of control | dose: 4.1 mg/kg/injection, schedule: Q01DX Z (ip), vehicle: carboxymethylcellulose (CMC) 102 % of control | dose: 8.3 mg/kg/injection, schedule: Q01DX Z (ip), vehicle: carboxymethylcellulose (CMC) 111 % of control

Cc1ccc(SC(=O)Cc2ccc([N+](=O)[O-])cc2)cc1
inactive: [18] 97 % of control | [20] 86 % of control | dose: 400.0 mg/kg/injection, schedule: Q01DX009 (ip), vehicle: saline with Tween-80 93 % of control

CCCC(OC(C)=O)C(Cl)(Cl)Cl (centres undefined)
inactive: [17] 103 % of control | [9] 107 % of control | [10] 97 % of control | [12] 97 % of control

O=S1(=O)C=C(Br)CC1
inactive: dose: 75.0 mg/kg/injection, schedule: Q01DX001 (ip), vehicle: saline with Tween-80 97 % of control | dose: 150.0 mg/kg/injection, schedule: Q01DX001 (ip), vehicle: saline with Tween-80 97 % of control | dose: 300.0 mg/kg/injection, schedule: Q01DX001 (ip), vehicle: saline with Tween-80 95 % of control

CNC(=O)Oc1ccc(N=Nc2ccccc2)cc1
inactive: dose: 100.0 mg/kg/injection, schedule: Q01DX001 (ip), vehicle: other 96 % of control | dose: 200.0 mg/kg/injection, schedule: Q01DX001 (ip), vehicle: other 96 % of control | dose: 400.0 mg/kg/injection, schedule: Q01DX001 (ip), vehicle: other 96 % of control
